Assay results taken from US20210252159A1, “CONJUGATES OF CARTILAGE-HOMING PEPTIDES” (priority 2018, published 2021).

What was measured:
[1] = Resistance to chemical reduction (50 mM DTT, LC-MS); format: physicochemical; details: 50 mM DTT for 60 minutes at room temperature
Experimental: The synthetically produced peptides were then analyzed side-by-side with peptides produced in the recombinant expression system as described above in EXAMPLE 1.

[2] = Rat CIA biodistribution study (QWBA); format: in vivo; details: CIA rats
Experimental: 50 uCi, 400 nmol of each compound was given intravenously (IV) through the tail vein and allowed to circulate 1 hour, 3 hours, or 24 hours. Rats were euthanized by CO2 asphyxiation, shaved, and frozen in dry ice chilled hexane. QWBA was performed and quantified as described.
Frozen carcasses were allowed to off gas hexane overnight at −20° and then embedded in chilled 2% carboxymethylcellulose (Sigma Aldrich) and sectioned sagittally at a thickness of 40 μm on an H/I Bright 8250 Cryostat (Hacker Instruments). Radioactive control guides were drilled into each block to verify even cutting depth along the length of the section. […]
(§1) Quantification of the radioactivity detected in WBA samples was evaluated by measuring the pixel density/mm^2 (“SI”: Signal Intensity/Area−background) using AIDA Image Analyzer v 5.1 Whole Body Autoradiography Professional software (Raytest). […] For quantification, all visible knee or IVD (intervertebral disc) tissues for one rodent across all collected sections were measured and averaged together to generate one knee or IVD value per animal. […] To collect quantified values for other tissues, ROIs were drawn around blood in the heart ventricle, spinotrapezius muscle, the liver, or the kidney (including cortex and medulla) in all sections in which the tissue was observed and then averaged to yield one value per tissue per animal. […]

[3] = Immunohistochemistry of knee and ankle sections with anti-peptide(SEQ ID NO: 105) and anti-Dex antibodies; format: in vivo, C57/Bl6 mice; details: mice, 100 nmol IV, three hours
Description: Immunohistochemistry methods were developed to detect peptide(SEQ ID NO: 105) and dexamethasone in cartilage of joints using a generated rabbit polyclonal anti-peptide(SEQ ID NO: 105) antibody and a commercially available anti-Dex antibody (Abcam, ab35000). Standard immunization methods were used to generate the anti-peptide(SEQ ID NO: 105) polyclonal antibody, which increases the immunogenicity of the dosed material and are not representative of potential immunogenicity of the unmodified peptide or therapeutic candidate molecules. To produce the immunogen for peptide(SEQ ID NO: 105) antibody generation, peptide(SEQ ID NO: 105) was conjugated to keyhole limpet hemocyanin (KLH) using ImjectTMmcKLH. Peptide(SEQ ID NO: 105)-KLH was administered as part of a pool of other KLH-conjugated peptides emulsified with Freund's complete adjuvant and administered to New Zealand White Rabbits following a standard schedule. The polyclonal antibody was purified from the serum using a HiTrap® mAb Select cartridge (GE Healthcare). Western blot was used to confirm antibody binding to the peptide. […]

[4] = Comparison of joint retention time among radiolabeled peptides (QWBA, knee and IVD); format: in vivo; design: Peptide Signal Retention in Knee / Peptide Signal Retention in IVD: unit not given here
Experimental: Frozen carcasses were allowed to off gas hexane overnight at −20° and then embedded in chilled 2% carboxymethylcellulose (Sigma Aldrich) and sectioned sagittally at a thickness of 40 μm on an H/I Bright 8250 Cryostat (Hacker Instruments). Radioactive control guides were drilled into each block to verify even cutting depth along the length of the section. The radioactive guide consisted of ^14C-Glycine (American Radiolabeled Chemicals, “ARC”) at 0.5 uCi/ml in 0.5% BSA (Sigma Aldrich) in PBS. Sections were collected onto 4-inch wide tape (Scotch 821, ULINE) at 2-4 depths to sample approximately 30 tissues with particular focus on the knees and spine. Collected sections were freeze dried in the cryostat for 48-72 hours then mounted on sturdy paper and covered with a single protective layer of cellophane (Reynolds Food Service Film). Mounted sections were exposed to phosphor imager plates (Raytest) along with a radioactive standard Curve (1465-PL, ARC) for 7-days, scanned on a Raytest CR-35 at “25 μm sensitive” setting.
Quantification of the radioactivity detected in WBA samples was evaluated by measuring the pixel density/mm^2 (“SI”: Signal Intensity/Area−background) using AIDA Image Analyzer v 5.1 Whole Body Autoradiography Professional software (Raytest). Regions of interest (ROIs) were drawn manually around the entire visible tissue, comparing the sectioned sample to the autoradiogram. For quantification, all visible knee or IVD (intervertebral disc) tissues for one rodent across all collected sections were measured and averaged together to generate one knee or IVD value per animal. Typically were sampled 1-2 knee values (from femoral and tibial cartilage) per 1-2 sections per animal and 3-10 IVD per 1-2 sections per animal. To collect quantified values for other tissues, ROIs were drawn around blood in the heart ventricle, spinotrapezius muscle, the liver, or the kidney (including cortex and medulla) in all sections in which the tissue was observed and then averaged to yield one value per tissue per animal.
Data were presented as nmol of compound per gram of tissue. The commercial standard strips co-exposed with each WBA sample set were calibrated so that a known amount of radioactive counts per minute (CPM) per gram of tissue, determined by liquid scintillation counting (LSC), corresponded to the measured WBA SI at 11 standard strip concentration data points. The regression line of the log 10 transformed WBA signal intensity plotted against the log 10 transformed CPM/g gave a linear range of 1×10^5 to 7.5×10^7 WBA SI, corresponding to 6.3 nCi/g to 3.3 μCi/g. The log 10 concentration of radioactivity in each tissue (CPM/g) was interpolated from the standard curve, converted to linear values, and translated from CPM/g to uCi/g by interpolation against an LSC CPM to μCi standard curve. Uptake (nmol of compound/g of tissue) was determined by dividing the μCi/g tissue by the μCi/nmol specific activity of the peptide.
Peptide(SEQ ID NO: 105) was dosed at 57-60 nmol. Peptide(SEQ ID NO: 103) was dosed at 130 nmol. Peptide(SEQ ID NO: 184) was dosed at 150 nmol. […] It should be noted that detection of retention is based on an assay that detects radiolabeling of the N-terminus of each of the tested conjugates, thus decrease in signal over time may be due not only to peptide diffusion back out of the cartilage but also aminopeptidase-mediated removal of N-terminal amino acid, general peptide cleavage, or other mechanisms. Results as measured by QWBA methods described herein are shown in Tables 6 and 7 below and FIG. 11.

[5] = Biodistribution in mice of stable peptide-TAA conjugate by whole body autoradiography (QWBA); format: in vivo; details: 100 nmol IV, 3 hours and 24 hours
Experimental: Peptide(SEQ ID NO: 105)-^14C-Cys-TAA (38, the radiolabeled conjugate prepared in EXAMPLE 7) (“peptide(SEQ ID NO: 105)-^14C-Cys” is disclosed as SEQ ID NO: 512) or ^14C-Cys-TAA was resuspended in 5% DMSO in water. The amount of radioactivity per μ1 of solution was measured using liquid scintillation counting (LSC). Each compound was administered intravenously to mice at a dose of 12.4 μCi (100 nmol) and allowed to circulate for the designated time intervals. The mice were then humanely euthanized and carcasses were frozen in dry ice chilled hexane. QWBA was performed and quantified as described. […]
as §1

GSGVPINVRCRGSRDCLDPCRRAGMRFGRCINSRCHCTP [peptide(SEQ ID NO: 105)]
resistance to chemical reduction [1]: very little formation of a new peak
accumulation in other tissues of the body ([2]; 400 nmol IV, 1, 3, 24 hrs, except liver and kidney): minimal accumulation
signal in cartilage (whole body autoradiography) ([2]; 400 nmol IV, 1 hr, 3 hrs, 24 hrs): signal can be detected
Immunostaining with anti-peptide(SEQ ID NO: 105) antibody in articular cartilage and growth plates of knee joint sections [3]: strong positive staining
Peptide Signal Retention in IVD ([4]; 0.08 Hours): 44.42
Peptide Signal Retention in Knee ([4]; 0.08 Hours): 91.00
Peptide Signal Retention in IVD ([4]; 0.5 Hours): 101.41
Peptide Signal Retention in Knee ([4]; 0.5 Hours): 102.49
Peptide Signal Retention in IVD ([4]; 1 Hours): 100.00
Peptide Signal Retention in Knee ([4]; 1 Hours): 100.00
Peptide Signal Retention in IVD ([4]; 3 Hours): 106.39
Peptide Signal Retention in Knee ([4]; 3 Hours): 72.64
Peptide Signal Retention in IVD ([4]; 8 Hours): 81.45
Peptide Signal Retention in Knee ([4]; 8 Hours): 42.42
Peptide Signal Retention in IVD ([4]; 24 Hours): 36.89
Peptide Signal Retention in Knee ([4]; 24 Hours): 22.61
Peptide Signal Retention in IVD ([4]; 48 Hours): 19.96
Peptide Signal Retention in Knee ([4]; 48 Hours): 9.73
Peptide Signal Retention in IVD ([4]; 72 Hours): 13.43
Peptide Signal Retention in Knee ([4]; 72 Hours): 8.76
Peptide Signal Retention in IVD ([4]; 96 Hours): 9.17
Peptide Signal Retention in Knee ([4]; 96 Hours): 5.05

^14C-Cys-triamicinolone acetonide [^14C-Cys-TAA, reference compound]
signal in cartilage (whole body autoradiography) [5]: no observable signal
